Source: patent US20160000750A1, “COMBINATION OF EGCG OR METHYLATED EGCG AND A PDE INHIBITOR” (KYUSHU UNIVERSITY, NATIONAL UNIVERSITY CORPORATION, priority 2010, published 2016)

What was measured:
[1] = tested on: human multiple myeloma cell line, U266; assay: Involvement of 67LR (anti-67LR antibody MLuc5) in cell-killing and cytostatic activity, U266; type: cell-based; conditions: U266, 96-well; vardenafil 5 μM, EGCG 5 μM; 96 hours; without anti-67LR antibody (isotype control mouse IgM)
Method: A trypan blue staining solution was prepared by suspending trypan blue in PBS at a concentration of 1% and was used in investigation of the anti-cancer activity of a combination of EGCG and vardenafil by trypan blue assay. The PBS used was prepared by dissolving 8.0 g of NaCl, 0.2 g of KCl, 1.15 g of Na2HPO4, and 0.2 g of KH2PO4 in 1 L of ultrapure water, followed by autoclave sterilization.
A human multiple myeloma cell line, U266, and a human acute myeloid leukemia cell line, HL60, adjusted to be 5×10^4 cells/mL (U266) and 1×10^4 cells/mL (HL60), respectively, in an RPMI 1640 medium supplemented with 1% FCS were seeded in a 96-well plate (Falcon Co., Ltd.). Vardenafil was added thereto at a final concentration of 5 μM. Immediately after the addition, an anti-67LR monoclonal antibody, MLuc5 (Abcam PLC), was added thereto at a final concentration of 20 μg/mL. In the group of adding an isotype control antibody, mouse IgM (Cosmo Bio Co., Ltd., Tokyo) was added at a final concentration of 20 μg/mL. […]
The plate was returned to the incubator immediately after the addition of EGCG, followed by culturing for 96 hours. […] After 10 minutes, the number of the cells was counted with a hemocytometer. Unstained cells were deemed as viable cells, and the cell viability was determined as a ratio of the number of unstained cells in trypan blue staining to the total number of cells. […]

[2] = tested on: mouse plasmacytoma cell line, MPC11, transplanted to Balb/c mice; assay: Tumor formation of MPC11 transplanted to Balb/c mice; type: in vivo; conditions: MPC11 s.c., EGCG 15 mg/kg i.p., vardenafil 5 mg/kg i.p., once every two days from day 4
Method: Furthermore, 5-week old female balb/c mice were preliminarily bred for one week and were then inoculated with a mouse multiple myeloma cell line, MPC11, by subcutaneous injection, in the right back, of […] of a suspension of 5×10^7 cells/mL of the cells in an RPMI medium. After 4 days from the inoculation, EGCG (15 mg/kg i.p.) and vardenafil (5 mg/kg i.p.) were administered once every two days, and the tumor volume was measured with varnier clipers. In the graph, EGCG and VDN indicate single administration of EGCG and vardenafil, respectively, and EGCG/Vardenafil indicates combination administration of EGCG and vardenafil.

## (−)-epigallocatechin-3-O-gallate [EGCG]
[1]
  cell viability (cell-killing activity): any cytotoxicity was not observed
[2]
  tumor formation (tumor volume): any inhibitory action on tumor formation of the mouse plasmacytoma cell line was not observed
